Source: patent publication US20250170130A1, “MODULATORS OF MYC FAMILY PROTO-ONCOGENE PROTEIN” (Nalo Therapeutics, priority 2022, published 2025)
Like-named read-outs stand apart in the source and are kept apart here.

Columns and labels:
[1] = target: T1, MycC (Homo sapiens, UniProt P01106); experiment: Degradation of MycC protein in L363 cells, JESS/Western blot of lysates; type: cell-based; conditions: L-363, 24 h; for Dmax at 1 µM: read-out: % Degradation of MycC (L-363) 24 h, 1 μM; for Dmax at 3 µM: read-out: % Degradation of MycC (L-363) 24 h, 3 μM; for Dmax at 6 µM: read-out: % Degradation of MycC (L-363) 24 h, 6 μM; for Dmax at 0.5 µM: read-out: % Degradation of MycC (L-363) 24 h, 0.5 μM
T1 construct: endogenous in cells; host or cells: L363
T1 sequence (P01106 whole entry): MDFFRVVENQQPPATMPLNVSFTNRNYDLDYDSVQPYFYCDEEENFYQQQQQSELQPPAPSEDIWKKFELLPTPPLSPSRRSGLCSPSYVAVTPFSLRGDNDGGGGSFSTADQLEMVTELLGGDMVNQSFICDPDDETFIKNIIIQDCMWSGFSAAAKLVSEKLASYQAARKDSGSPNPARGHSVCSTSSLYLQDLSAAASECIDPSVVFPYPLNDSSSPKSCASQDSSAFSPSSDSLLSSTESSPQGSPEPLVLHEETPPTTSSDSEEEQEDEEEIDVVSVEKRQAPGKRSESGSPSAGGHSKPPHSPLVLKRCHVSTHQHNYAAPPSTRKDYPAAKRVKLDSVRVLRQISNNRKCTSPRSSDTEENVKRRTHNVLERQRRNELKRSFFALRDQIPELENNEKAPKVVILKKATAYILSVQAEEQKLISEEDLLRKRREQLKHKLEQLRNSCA
Summary of the method: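 L363 suspension cells were seeded at 1E6 cells per well and exposed to compound (stock 10 mM in DMSO) for 24 hrs. Cells were collected, spun down, rinsed with PBS, lysed in RIPA buffer cocktail on ice, clarified and kept at −80 degrees. Lysate protein was quantified by BCA, and c-myc was measured on JESS by chemiluminescence with tubulin and GAPDH loading controls in the NIR channel.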

[2] = target: T2, MycN (Homo sapiens, UniProt P04198); experiment: Degradation of MycN protein in SK-N-BE(2) cells, JESS/Western blot of lysates; type: cell-based; conditions: SKNBE2, 24 h; for Dmax at 0.5 µM: read-out: % Degradation of MycN (SKNBE2) 24 h, 0.5 μM; for Dmax at 1 µM: read-out: % Degradation of MycN (SKNBE2) 24 h, 1 μM; for Dmax at 3 µM: read-out: % Degradation of MycN (SKNBE2) 24 h, 3 μM; for Dmax at 6 µM: read-out: % Degradation of MycN (SKNBE2) 24 h, 6 μM
T2 construct: endogenous in cells; host or cells: SK-N-BE(2)
T2 sequence (P04198 1-464): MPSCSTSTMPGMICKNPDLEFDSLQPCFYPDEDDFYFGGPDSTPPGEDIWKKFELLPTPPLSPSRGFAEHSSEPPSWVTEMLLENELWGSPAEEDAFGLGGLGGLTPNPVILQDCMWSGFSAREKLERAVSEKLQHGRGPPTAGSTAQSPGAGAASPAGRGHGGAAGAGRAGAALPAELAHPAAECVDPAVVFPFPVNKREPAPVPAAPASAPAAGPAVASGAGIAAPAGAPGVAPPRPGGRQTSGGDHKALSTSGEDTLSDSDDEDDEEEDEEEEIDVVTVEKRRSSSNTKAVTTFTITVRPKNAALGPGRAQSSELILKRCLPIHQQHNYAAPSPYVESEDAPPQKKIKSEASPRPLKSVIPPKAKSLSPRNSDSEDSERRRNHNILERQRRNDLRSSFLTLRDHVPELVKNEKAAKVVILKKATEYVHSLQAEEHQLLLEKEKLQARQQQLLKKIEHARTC
Summary of the method: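 SK-N-BE(2) adherent cells (5E5 per well of a 6 well dish) were grown 24 hrs, then exposed to compounds diluted 1 in 20 in media, with DMSO controls, for 24 hrs. Cells were scraped, pelleted, PBS washed and lysed in RIPA buffer cocktail; after BCA protein quantitation, n-myc was detected by chemiluminescence on JESS/Western blot with tubulin and GAPDH loading controls read in the near infra red channel.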

| Dmax at 1 µM ([1]; L-363 cells, 24 h, 1 μM) | Dmax at 3 µM ([1]; L-363 cells, 24 h, 3 μM) | Dmax at 6 µM ([1]; L-363 cells, 24 h, 6 μM) | Dmax at 0.5 µM ([2]; SKNBE2 cells, 24 h, 0.5 μM) | Dmax at 1 µM ([2]; SKNBE2 cells, 24 h, 1 μM) | Dmax at 3 µM ([2]; SKNBE2 cells, 24 h, 3 μM) | Dmax at 6 µM ([2]; SKNBE2 cells, 24 h, 6 μM) | Dmax at 0.5 µM ([1]; L-363 cells, 24 h) | SMILES | Dmax at 1 µM [1] | Dmax at 3 µM [1] | Dmax at 6 µM [1] | Dmax at 0.5 µM [2] | Dmax at 1 µM [2] | Dmax at 3 µM [2] | Dmax at 6 µM [2] |
| --- | --- | --- | --- | --- | --- | --- | --- | --- | --- | --- | --- | --- | --- | --- | --- |
| – | – | – | – | – | – | – | – | CC(C)NCC12CC(C1)N(c1nccc(Nc3cc(C4CCCC4)[nH]n3)n1)C2 [Compound 78, N-(5-Cyclopentyl-1H-pyrazol-3-yl)-2-[4-[(isopropylamino)methyl]-2-azabicyclo[2.1.1]hexan-2-yl]pyrimidin-4-amine] | < 20% | 50 to 79% | 80 to 100% | < 20% | 20 to 49% | 80 to 100% | 80 to 100% |
| 20 to 49% | < 20% | 20 to 49% | < 20% | < 20% | < 20% | < 20% | – | CN(C)CCCN(C)c1nccc(Nc2cc(C3CC3)[nH]n2)n1 [Compound 48, N^4-(5-cyclopropyl-1H-pyrazol-3-yl)-N^2-[3-(dimethylamino)propyl]-N^2-methyl-pyrimidine-2,4-diamine] | – | – | – | – | – | – | – |
| < 20% | – | 20 to 49% | – | 20 to 49% | 80 to 100% | 80 to 100% | < 20% | NCC1CCN(c2nccc(Nc3cc(C4CC4)[nH]n3)n2)CC1 [Compound 10, 2-(4-(aminomethyl)piperidin-1-yl)-N-(5-cyclopropyl-1H-pyrazol-3-yl)pyrimidin-4-amine] | – | – | – | – | – | – | – |
| 20 to 49% | 20 to 49% | 20 to 49% | < 20% | < 20% | < 20% | 20 to 49% | 20 to 49% | CNCCCN(C)c1nccc(Nc2cc(C3CC3)[nH]n2)n1 [Compound 101, N^4-(5-Cyclopropyl-1H-pyrazol-3-yl)-N^2-methyl-N^2-[3-(methylamino)propyl]pyrimidine-2,4-diamine] | – | – | – | – | – | – | – |
| < 20% | 20 to 49% | 20 to 49% | – | – | – | 20 to 49% | < 20% | CN(C)CC1CCN(c2nccc(Nc3cc(C4CC4)[nH]n3)n2)CC1 [Compound 5, N-(5-Cyclopropyl-1H-pyrazol-3-yl)-2-(4-((dimethylamino)methyl)piperidin-1-yl)pyrimidin-4-amine] | – | – | – | – | – | – | – |
| – | – | – | – | – | – | – | – | NCC12CC(C1)N(c1nccc(Nc3cc(C4CC4)[nH]n3)n1)C2 [Compound 30, 2-[4-(aminomethyl)-2-azabicyclo[2.1.1]hexan-2-yl]-N-(5-cyclopropyl-1H-pyrazol-3-yl)pyrimidin-4-amine] | 20 to 49% | 80 to 100% | 80 to 100% | < 20% | 50 to 79% | 80 to 100% | 80 to 100% |
| – | < 20% | < 20% | < 20% | 20 to 49% | 20 to 49% | 20 to 49% | – | CN1CC2(CCCN(c3nccc(Nc4cc(C5CCCC5)[nH]n4)n3)C2)C1 [Compound 107, N-(5-cyclopentyl-1H-pyrazol-3-yl)-2-(2-methyl-2,6-diazaspiro[3.5]nonan-6-yl)pyrimidin-4-amine] | – | – | – | – | – | – | – |
| – | – | – | – | – | – | – | – | c1cc(Nc2cc(C3CCCC3)[nH]n2)nc(N2CC3(CN4CCC4)CC2C3)n1 [Compound 76, 2-[4-(Azetidin-1-ylmethyl)-2-azabicyclo[2.1.1]hexan-2-yl]-N-(5-cyclopentyl-1H-pyrazol-3-yl)pyrimidin-4-amine] | – | < 20% | 80 to 100% | – | < 20% | 80 to 100% | 80 to 100% |
| 80 to 100% | 80 to 100% | 80 to 100% | 80 to 100% | 80 to 100% | 80 to 100% | 80 to 100% | 80 to 100% | CNCC12CCC(C1)N(c1nccc(Nc3cc(C4CCCC4)[nH]n3)n1)C2 (centres unmarked) [Compound 114] | – | – | – | – | – | – | – |
| – | 80 to 100% | 80 to 100% | 20 to 49% | 50 to 79% | 80 to 100% | 80 to 100% | – | CNCC12CC(C1)N(c1nc3c(c(Nc4cc(C5CCCC5)[nH]n4)n1)CCC3)C2 [Compound 183, N-(5-Cyclopentyl-1H-pyrazol-3-yl)-2-[4-(methylaminomethyl)-2-azabicyclo[2.1.1]hexan-2-yl]-6,7-dihydro-5H-cyclopenta[d]pyrimidin-4-amine] | – | – | – | – | – | – | – |
| < 20% | 50 to 79% | 80 to 100% | – | – | 20 to 49% | 50 to 79% | < 20% | CNCC1CCN(c2nccc(Nc3cc(C4CC4)[nH]n3)n2)CC1 [Compound 12, N-(5-Cyclopropyl-1H-pyrazol-3-yl)-2-(4-((methylamino)methyl)piperidin-1-yl)pyrimidin-4-amine] | – | – | – | – | – | – | – |
| – | – | – | – | – | – | – | – | NCC1CN(c2nccc(Nc3cc(C4CC4)[nH]n3)n2)CC(F)(F)C1 (centres unmarked) [Compound 121, 2-[5-(Aminomethyl)-3,3-difluoro-1-piperidyl]-N-(5-cyclopropyl-1H-pyrazol-3-yl)pyrimidin-4-amine] | 80 to 100% | 80 to 100% | 80 to 100% | 50 to 79% | 50 to 79% | 80 to 100% | 80 to 100% |
| 50 to 79% | 80 to 100% | 80 to 100% | 20 to 49% | 20 to 49% | 50 to 79% | 80 to 100% | 20 to 49% | NC[C@H]1CN(c2nccc(Nc3cc(C4CCCC4)[nH]n3)n2)C[C@H]1F [Compound 123-2, 2-[(3S,4S)-3-(Aminomethyl)-4-fluoro-pyrrolidin-1-yl]-N-(5-cyclopentyl-1H-pyrazol-3-yl)pyrimidin-4-amine] | – | – | – | – | – | – | – |
| < 20% | < 20% | – | < 20% | 20 to 49% | < 20% | 80 to 100% | – | CNC[C@@H]1CN(c2nccc(Nc3cc(C4CCCC4)[nH]n3)n2)CCO1 [Compound 118, N-(5-Cyclopentyl-1H-pyrazol-3-yl)-2-[(2R)-2-(methylaminomethyl)morpholin-4-yl]pyrimidin-4-amine] | – | – | – | – | – | – | – |
| < 20% | < 20% | < 20% | < 20% | < 20% | < 20% | 50 to 79% | < 20% | CN(C)C[C@H]1CCN(c2nccc(Nc3cc(C4CCCC4)[nH]n3)n2)C1 [Compound 111, N-(5-Cyclopentyl-1H-pyrazol-3-yl)-2-[(3R)-3-[(dimethylamino)methyl]pyrrolidin-1-yl]pyrimidin-4-amine] | – | – | – | – | – | – | – |

| SMILES | Dmax at 1 µM ([1]; L-363 cells, 24 h, 1 μM) | Dmax at 3 µM ([1]; L-363 cells, 24 h, 3 μM) | Dmax at 6 µM ([1]; L-363 cells, 24 h, 6 μM) | Dmax at 0.5 µM ([2]; SKNBE2 cells, 24 h, 0.5 μM) | Dmax at 1 µM ([2]; SKNBE2 cells, 24 h, 1 μM) | Dmax at 3 µM ([2]; SKNBE2 cells, 24 h, 3 μM) | Dmax at 6 µM ([2]; SKNBE2 cells, 24 h, 6 μM) | Dmax at 0.5 µM ([1]; L-363 cells, 24 h) | Dmax at 1 µM [1] | Dmax at 3 µM [1] | Dmax at 6 µM [1] | Dmax at 0.5 µM [2] | Dmax at 1 µM [2] | Dmax at 3 µM [2] | Dmax at 6 µM [2] |
| --- | --- | --- | --- | --- | --- | --- | --- | --- | --- | --- | --- | --- | --- | --- | --- |
| c1cc(Nc2cc(C3CC3)[nH]n2)nc(N2C[C@H]3CNC[C@@H]3C2)n1 (racemic) [Compound 50, N-(5-Cyclopropyl-1H-pyrazol-3-yl)-2-[rac-(3aR,6aR)-2,3,3a,4,6,6a-hexahydro-1H-pyrrolo[3,4-c]pyrrol-5-yl]pyrimidin-4-amine] | < 20% | 20 to 49% | 50 to 79% | 20 to 49% | 20 to 49% | 50 to 79% | 80 to 100% | 20 to 49% | – | – | – | – | – | – | – |
| c1cc(Nc2cc(C3CC3)[nH]n2)nc(N2C[C@H]3CNC[C@H]3C2)n1 [Compound 18, N-(5-Cyclopropyl-1H-pyrazol-3-yl)-2-[rac-(3aR,6aS)-2,3,3a,4,6,6a-hexahydro-1H-pyrolo[3,4-c]pyrrol-5-yl]pyrimidin-4-amine] | < 20% | < 20% | 20 to 49% | 20 to 49% | 50 to 79% | 80 to 100% | 80 to 100% | < 20% | – | – | – | – | – | – | – |
